# Data published in PMC7606262 (Molecular genetics and metabolism, 2020).
# Where a chain is given by its changes, count along the chain named.
# Assays:
# [1] = molecular target: T1, LCAD (long-chain acyl-CoA dehydrogenase) (Homo sapiens, UniProt P28330); assay: acyl-CoA oxidase assay; format: biochemical; settings: oxygen as electron acceptor; 50 mM phosphate pH 7.0, 30 °C
# T1 sequence (P28330 31-430): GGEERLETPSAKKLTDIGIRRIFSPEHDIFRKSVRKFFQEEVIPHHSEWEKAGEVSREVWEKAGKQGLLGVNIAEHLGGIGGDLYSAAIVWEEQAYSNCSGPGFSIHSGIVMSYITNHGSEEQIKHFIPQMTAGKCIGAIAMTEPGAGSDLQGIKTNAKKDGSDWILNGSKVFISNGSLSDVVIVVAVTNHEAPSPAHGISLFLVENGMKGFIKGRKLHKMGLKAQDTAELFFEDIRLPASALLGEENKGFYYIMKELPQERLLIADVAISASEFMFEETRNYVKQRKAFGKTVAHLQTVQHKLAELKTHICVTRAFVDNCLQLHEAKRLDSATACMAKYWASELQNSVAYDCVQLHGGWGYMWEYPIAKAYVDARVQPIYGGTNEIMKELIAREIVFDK
# [2] = molecular target: T2, LCAD (long-chain acyl-CoA dehydrogenase) (Homo sapiens, UniProt P28330, K333Q); assay: acyl-CoA oxidase assay; format: biochemical; settings: oxygen as electron acceptor; 50 mM phosphate pH 7.0, 30 °C
# T2 sequence (P28330 31-430 K333Q): T1 sequence (P28330 31-430) with K303Q
# [3] = molecular target: T1, LCAD (long-chain acyl-CoA dehydrogenase); assay: absorbance scan, A443/A280 FAD content; format: binding; settings: 100 uM free FAD, 37 °C, 20 min, then dialysis; non-covalent FAD
Compound,"acyl-CoA oxidase assay (HRP / Amplex UltraRed fluorescence, H2O2) [1]","acyl-CoA oxidase assay (HRP / Amplex UltraRed fluorescence, H2O2) [2]",A443/A280 [3]
"CCCCCCCCCCCCCCCCCC(=O)SCCNC(=O)CCNC(=O)[C@H](O)C(C)(C)COP(=O)(O)OP(=O)(O)OC[C@H]1O[C@@H](n2cnc3c(N)ncnc32)[C@H](O)[C@@H]1OP(=O)(O)O [C18-CoA, stearoyl-CoA]",C18-CoA was used as substrate as this chain length produces the highest H2O2 production,the presence of the K333Q substitution significantly reduced oxidase activity,–
Cc1cc2nc3c(=O)[nH]c(=O)nc-3n(C[C@H](O)[C@H](O)[C@H](O)COP(=O)(O)OP(=O)(O)OC[C@H]3O[C@@H](n4cnc5c(N)ncnc54)[C@H](O)[C@@H]3O)c2cc1C [FAD],–,–,"After incubation of wild-type LCAD with FAD, the A443/A280 ratio, an indicator of enzyme-bound FAD"
